Test results published in ChEMBL document CHEMBL3045645, “Organophosphorus derivatives containing isatin-3-hydrazones as chemotherapeutants against fungal pathogens of sugarcane” (2008).
≈ marks a conversion by molar mass, not a printed value.

Experiments:
Type in all cases: functional
[1] = test system: Colletotrichum falcatum; assay: Antifungal activity against Glomerella tucumanensis assessed as mycelial growth inhibition at 1000 ppm at 28 +/-2 degC after 7 days by food poison technique; settings: 168 h, read-out: GI
[2] = test system: Fusarium oxysporum; assay: Antifungal activity against Fusarium oxysporum assessed as mycelial growth inhibition at 100 ppm at 28 +/-2 degC after 7 days by food poison technique; settings: 168 h, read-out: GI
[3] = test system: Curvularia pallescens; assay: Antifungal activity against Cochliobolus pallescens assessed as mycelial growth inhibition at 10 ppm at 28 +/-2 degC after 7 days by food poison technique; settings: 168 h, read-out: GI
[4] = test system: Curvularia pallescens; assay: Antifungal activity against Cochliobolus pallescens assessed as mycelial growth inhibition at 1000 ppm at 28 +/-2 degC after 7 days by food poison technique; settings: 168 h, read-out: GI
[5] = test system: Fusarium oxysporum; assay: Antifungal activity against Fusarium oxysporum assessed as mycelial growth inhibition at 1000 ppm at 28 +/-2 degC after 7 days by food poison technique; settings: 168 h, read-out: GI
[6] = test system: Fusarium oxysporum; assay: Antifungal activity against Fusarium oxysporum assessed as mycelial growth inhibition at 10 ppm at 28 +/-2 degC after 7 days by food poison technique; settings: 168 h, read-out: GI
[7] = test system: Curvularia pallescens; assay: Antifungal activity against Cochliobolus pallescens assessed as mycelial growth inhibition at 100 ppm at 28 +/-2 degC after 7 days by food poison technique; settings: 168 h, read-out: GI
[8] = test system: Colletotrichum falcatum; assay: Antifungal activity against Glomerella tucumanensis assessed as mycelial growth inhibition at 100 ppm at 28 +/-2 degC after 7 days by food poison technique; settings: 168 h, read-out: GI
[9] = test system: Colletotrichum falcatum; assay: Antifungal activity against Glomerella tucumanensis assessed as mycelial growth inhibition at 10 ppm at 28 +/-2 degC after 7 days by food poison technique; settings: 168 h, read-out: GI
[10] = test system: Fusarium oxysporum; assay: Ratio of mancozeb MIC to compound MIC for Fusarium oxysporum after 7 days by food poison technique
[11] = test system: Fusarium oxysporum; assay: Ratio of copper oxychloride MIC to compound MIC for Fusarium oxysporum after 7 days by food poison technique
[12] = test system: Fusarium oxysporum; assay: Ratio of carbendazim MIC to compound MIC for Fusarium oxysporum after 7 days by food poison technique
[13] = test system: Curvularia pallescens; assay: Ratio of copper oxychloride MIC to compound MIC for Cochliobolus pallescens after 7 days by food poison technique
[14] = test system: Colletotrichum falcatum; assay: Antifungal activity against Glomerella tucumanensis assessed as mycelial growth inhibition at 28 +/-2 degC after 7 days by food poison technique; settings: 168 h
[15] = test system: Curvularia pallescens; assay: Ratio of mancozeb MIC to compound MIC for Cochliobolus pallescens after 7 days by food poison technique
[16] = test system: Fusarium oxysporum; assay: Antifungal activity against Fusarium oxysporum assessed as mycelial growth inhibition at 28 +/-2 degC after 7 days by food poison technique; settings: 168 h
[17] = test system: Curvularia pallescens; assay: Antifungal activity against Cochliobolus pallescens assessed as mycelial growth inhibition at 28 +/-2 degC after 7 days by food poison technique; settings: 168 h
[18] = test system: Colletotrichum falcatum; assay: Ratio of mancozeb MIC to compound MIC for Glomerella tucumanensis after 7 days by food poison technique
[19] = test system: Fusarium oxysporum; assay: Ratio of thiophanate MIC to compound MIC for Fusarium oxysporum after 7 days by food poison technique
[20] = test system: Colletotrichum falcatum; assay: Ratio of thiophanate MIC to compound MIC for Glomerella tucumanensis after 7 days by food poison technique
[21] = test system: Curvularia pallescens; assay: Ratio of thiophanate MIC to compound MIC for Cochliobolus pallescens after 7 days by food poison technique
[22] = test system: Curvularia pallescens; assay: Ratio of carbendazim MIC to compound MIC for Cochliobolus pallescens after 7 days by food poison technique
[23] = test system: Colletotrichum falcatum; assay: Ratio of carbendazim MIC to compound MIC for Glomerella tucumanensis after 7 days by food poison technique
[24] = test system: Colletotrichum falcatum; assay: Ratio of copper oxychloride MIC to compound MIC for Glomerella tucumanensis after 7 days by food poison technique

| SMILES | inhibition of growth at 1000 ppm [1] | inhibition of growth at 100 ppm [2] | inhibition of growth at 10 ppm [3] | inhibition of growth at 1000 ppm [4] | inhibition of growth at 1000 ppm [5] | inhibition of growth at 10 ppm [6] | inhibition of growth at 100 ppm [7] | inhibition of growth at 100 ppm [8] | inhibition of growth at 10 ppm [9] | also measured |
| --- | --- | --- | --- | --- | --- | --- | --- | --- | --- | --- |
| CCOP(=O)(OCC)O/C(COc1ccccc1)=N\N=C1/C(=O)Nc2ccccc21 | 70.2% | 59.2% | 50.1% | 68.8% | 69.6% | 50% | 58.2% | 61.6% | 51.2% |  |
| CCOP(=O)(OCC)O/C(COc1ccc(Cl)cc1)=N\N=C1/C(=O)Nc2ccccc21 | 80.2% | 74.2% | 60.9% | 82.6% | 85.6% | 61.8% | 71.8% | 71.6% | 64.8% |  |
| CCOP(=O)(OCC)O/C(COc1ccc([N+](=O)[O-])cc1)=N\N=C1/C(=O)Nc2ccccc21 | 60.2% | 45.8% | 34% | 55.6% | 61.5% | 37.2% | 42.8% | 48.6% | 38.6% |  |
| CCOP(=S)(OCC)O/C(COc1ccccc1)=N\N=C1/C(=O)Nc2ccccc21 | 75.2% | 69.1% | 52.6% | 74.2% | 76.8% | 54% | 62.7% | 67% | 56.2% |  |
| CCOP(=S)(OCC)O/C(COc1ccc([N+](=O)[O-])cc1)=N\N=C1/C(=O)Nc2ccccc21 | 68.4% | 52.6% | 40.6% | 65.6% | 67.8% | 44.6% | 52.8% | 56.2% | 48.2% |  |
| CCOP(=O)(OCC)O/C(COc1ccc(OP(=O)(OCC)OCC)cc1)=N\N=C1/C(=O)Nc2ccccc21 | 80.6% | 69.2% | 62.8% | 76.4% | 78.6% | 60.2% | 70% | 70.2% | 61.5% |  |
| CCOP(=S)(OCC)O/C(COc1ccc(OP(=S)(OCC)OCC)cc1)=N\N=C1/C(=O)Nc2ccccc21 | 100% | 82.6% | 68.6% | 100% | 100% | 70.2% | 80.5% | 86.2% | 75.1% | Ratio [10]: 2; Ratio [11]: 2; Ratio [12]: 2; Ratio [13]: 2; MIC [14]: 1000 µg/mL (≈ 1.62 mM); Ratio [15]: 2; MIC [16]: 1000 µg/mL (≈ 1.62 mM); MIC [17]: 1000 µg/mL (≈ 1.62 mM); Ratio [18]: 2; Ratio [19]: 2; Ratio [20]: 2; Ratio [21]: 2; Ratio [22]: 2; Ratio [23]: 2; Ratio [24]: 2 |
| CCOP(=O)(OCC)O/C(COc1ccccc1P(=O)(OCC)OCC)=N\N=C1/C(=O)Nc2ccccc21 | 78.2% | 64% | 57.2% | 71.2% | 74.2% | 58.6% | 64.6% | 67.4% | 60.2% |  |
| CCOP(=S)(OCC)O/C(COc1ccccc1P(=S)(OCC)OCC)=N\N=C1/C(=O)Nc2ccccc21 | 95.6% | 80% | 72.8% | 93.8% | 92.8% | 71.6% | 79.9% | 81.2% | 72.5% |  |
| COC(=O)Nc1nc2ccccc2[nH]1 [CARBENDAZIM] |  |  |  |  |  |  |  |  |  | MIC [14]: 4000 µg/mL (≈ 20.9 mM); MIC [16]: 3000 µg/mL (≈ 15.7 mM); MIC [17]: 4000 µg/mL (≈ 20.9 mM) |
| COC(=O)NC(=S)Nc1ccccc1NC(=S)NC(=O)OC [THIOPHANATE METHYL] |  |  |  |  |  |  |  |  |  | MIC [14]: 4000 µg/mL (≈ 11.7 mM); MIC [16]: 4000 µg/mL (≈ 11.7 mM); MIC [17]: 4000 µg/mL (≈ 11.7 mM) |
